Patent US10869844B2, “Methods for the treatment of depression” (Janssen Pharmaceutica NV, priority 2014, dated 2020)
Where two headings read alike, the source gives them in different places.

Tests used:
[1] = tested on: Met/Met knocked in mice; settings: LIU, Biol. Psychiatry 2012; cited from earlier work
[2] = tested on: adult subjects with treatment resistant depression; type: in vivo, human; settings: for Non-remitters % / Non-remitters No. / Remitters No. (MADRS total score 10) / Remitters % (MADRS total score 10): ketamine pooled 2x/week and 3x/week; for Duration of response, survival function estimate: Failure / Duration of response, survival function estimate: Survival: ketamine responders (Day 29), follow-up phase; for Response rates, Val/Val vs Met carriers: ketamine subjects
Source text: This was a double-blind, randomized, placebo-controlled, parallel arm study to assess the safety and efficacy of ketamine dosed 2 or 3 times weekly in adult subjects with treatment resistant depression. The study consisted of up to 4 phases: a screening phase of up to 4 weeks, a 4-week double-blind treatment phase (Day 1 to Day 29), an optional 2-week open label treatment phase, and a post treatment (follow up) phase of up to 3 weeks.
On Day 1 of the double-blind treatment phase, subjects were randomized to receive either i.v. infusions of placebo 2 times weekly or i.v. infusions of placebo 3 times weekly or i.v. infusions of ketamine 0.50 mg/kg, 2 times weekly or i.v. infusions of ketamine 0.50 mg/kg, 3 times weekly over 4 weeks.
Subjects who discontinued the double-blind treatment phase of the study due to lack of efficacy (based upon the clinical judgment of the investigator) after completion of the Day 15 visit, but prior to the Day 29 visit, may have received open-label ketamine treatment with the same dose frequency for an additional 2 weeks. After completing the Early Termination visit, the subject had study assessments as per the Time and Events Schedule for the optional open-label treatment phase followed by one follow up visit performed 1 week after the last dose of study medication.

[3] = tested on: NMDA receptor; settings: S-enantiomer compared with ketamine; cited from earlier work
[4] = Met carriers, DAY 03 or DAY 04, ketamine pooled 2x/wk and 3x/wk
[5] = Met carriers, DAY 08(DB), ketamine pooled 2x/wk and 3x/wk
[6] = Met carriers, DAY 15(DB), ketamine pooled 2x/wk and 3x/wk
[7] = Met carriers, DAY 29(DB), ketamine pooled 2x/wk and 3x/wk
[8] = Met carriers, Day 0 after Day 29
[9] = Met carriers, Day 10 after Day 29
[10] = Met carriers, Day 11 after Day 29
[11] = Val/Val, DAY 03 or DAY 04, ketamine pooled 2x/wk and 3x/wk
[12] = Val/Val, DAY 08(DB), ketamine pooled 2x/wk and 3x/wk
[13] = Val/Val, DAY 15(DB), ketamine pooled 2x/wk and 3x/wk
[14] = Val/Val, DAY 29(DB), ketamine pooled 2x/wk and 3x/wk

In the case of `CNC1(c2ccccc2Cl)CCCCC1=O` (racemic) [Ketamine, ketamine], the “Antidepressant-like response, Met/Met knocked in mice compared to Val/Val mice” value [1] is listed as “blunted antidepressant-like response”, the “Synaptogenesis, Met/Met knocked in mice compared to Val/Val mice” value [1] is listed as “reduced synaptogenesis” and the “Subjects who remain well, number” value ([2]; Met carrier group, at Day 39, from 7) is listed as 4. The “Day 29 responders who maintain response status during the follow-up phase, %” value ([2]; Met carriers (of 8)) was 62.5%, the “Day 29 responders who maintain response status during the follow-up phase, number” value ([2]; Met carriers (of 8)) was 5 and the Non-remitters % ([2]; Met carriers, DAY 03 or DAY 04) was 100.0%. The “Non-remitters No.” value ([2]; Met carriers, DAY 03 or DAY 04) was 13, the “Remitters No. (MADRS total score 10)” value ([2]; Met carriers, DAY 03 or DAY 04) was 0 and the “MADRS total score change from baseline, Mean” value (shortened to “MADRS total score change”) [2, 4] was −6.85. The “MADRS total score, Mean” value [2, 4] was 25.92, the Non-responders % [2, 4] was 92.3% and the “Non-responders N” value [2, 4] was 12. For the same compound, the “Responders % (MADRS total score reduction ≥50%)” value [2, 4] was 7.7%, the “Responders N (MADRS total score reduction ≥50%)” value [2, 4] was 1 and the Non-remitters % ([2]; Met carriers, DAY 08(DB)) was 72.7%. For the same compound, the “Non-remitters No.” value ([2]; Met carriers, DAY 08(DB)) was 8, the “Remitters % (MADRS total score 10)” value ([2]; Met carriers, DAY 08(DB)) was 27.3% and the “Remitters No. (MADRS total score 10)” value ([2]; Met carriers, DAY 08(DB)) was 3. The “MADRS total score change” value [2, 5] was −15.64, the “MADRS total score, Mean” value [2, 5] was 17.00 and the Non-responders % [2, 5] was 54.5%. For the same compound, the “Non-responders N” value [2, 5] was 6, the “Responders % (MADRS total score reduction ≥50%)” value [2, 5] was 45.5% and the “Responders N (MADRS total score reduction ≥50%)” value [2, 5] was 5. For the same compound, the Non-remitters % ([2]; Met carriers, DAY 15(DB)) was 54.5%, the “Non-remitters No.” value ([2]; Met carriers, DAY 15(DB)) was 6 and the “Remitters % (MADRS total score 10)” value ([2]; Met carriers, DAY 15(DB)) was 45.5%. The “Remitters No. (MADRS total score 10)” value ([2]; Met carriers, DAY 15(DB)) was 5, the “MADRS total score change” value [2, 6] was −17.45 and the “MADRS total score, Mean” value [2, 6] was 15.18. The Non-responders % [2, 6] was 45.5%, the “Non-responders N” value [2, 6] was 5 and the “Responders % (MADRS total score reduction ≥50%)” value [2, 6] was 54.5%. For the same compound, the “Responders N (MADRS total score reduction ≥50%)” value [2, 6] was 6, the Non-remitters % ([2]; Met carriers, DAY 29(DB)) was 33.3% and the “Non-remitters No.” value ([2]; Met carriers, DAY 29(DB)) was 3. For the same compound, the “Remitters % (MADRS total score 10)” value ([2]; Met carriers, DAY 29(DB)) was 66.7%, the “Remitters No. (MADRS total score 10)” value ([2]; Met carriers, DAY 29(DB)) was 6 and the “MADRS total score change” value [2, 7] was −22.00. For the same compound, the “MADRS total score, Mean” value [2, 7] was 10.78, the Non-responders % [2, 7] was 11.1% and the “Non-responders N” value [2, 7] was 1. The “Responders % (MADRS total score reduction ≥50%)” value [2, 7] was 88.9%, the “Responders N (MADRS total score reduction ≥50%)” value [2, 7] was 8 and the “Duration of response, survival function estimate: Failure” value (“Duration of response … Failure” for short) [2, 8] was 0. The “Duration of response, survival function estimate: Survival” value [2, 8] was 1.0000, the “Duration of response … Failure” value [2, 9] was 0.2857 and the “Duration of response, survival function estimate: Survival” value [2, 9] was 0.7143. The “Duration of response … Failure” value [2, 10] was 0.4286, the “Duration of response, survival function estimate: Survival” value [2, 10] was 0.5714 and the “Day 29 responders who maintain response status during the follow-up phase, %” value ([2]; Val/Val (of 14)) was 64.3%. For the same compound, the “Day 29 responders who maintain response status during the follow-up phase, number” value ([2]; Val/Val (of 14)) was 9, the “Ketamine responders on Day 29, number” value ([2]; Val/Val and Met carriers together) was 22 and the Non-remitters % ([2]; Val/Val, DAY 03 or DAY 04) was 95.2%. For the same compound, the “Non-remitters No.” value ([2]; Val/Val, DAY 03 or DAY 04) was 20, the “Remitters % (MADRS total score 10)” value ([2]; Val/Val, DAY 03 or DAY 04) was 4.8% and the “Remitters No. (MADRS total score 10)” value ([2]; Val/Val, DAY 03 or DAY 04) was 1. For the same compound, the “MADRS total score change” value [2, 11] was −12.67, the “MADRS total score, Mean” value [2, 11] was 22.29 and the Non-responders % [2, 11] was 71.4%. The “Non-responders N” value [2, 11] was 15, the “Responders % (MADRS total score reduction ≥50%)” value [2, 11] was 28.6% and the “Responders N (MADRS total score reduction ≥50%)” value [2, 11] was 6. The Non-remitters % ([2]; Val/Val, DAY 08(DB)) was 80.0%, the “Non-remitters No.” value ([2]; Val/Val, DAY 08(DB)) was 16 and the “Remitters % (MADRS total score 10)” value ([2]; Val/Val, DAY 08(DB)) was 20.0%. The “Remitters No. (MADRS total score 10)” value ([2]; Val/Val, DAY 08(DB)) was 4, the “MADRS total score change” value [2, 12] was −16.65 and the “MADRS total score, Mean” value [2, 12] was 18.50. For the same compound, the Non-responders % [2, 12] was 60.0%, the “Non-responders N” value [2, 12] was 12 and the “Responders % (MADRS total score reduction ≥50%)” value [2, 12] was 40.0%. The “Responders N (MADRS total score reduction ≥50%)” value [2, 12] was 8, the Non-remitters % ([2]; Val/Val, DAY 15(DB)) was 77.8% and the “Non-remitters No.” value ([2]; Val/Val, DAY 15(DB)) was 14. The “Remitters % (MADRS total score 10)” value ([2]; Val/Val, DAY 15(DB)) was 22.2%, the “Remitters No. (MADRS total score 10)” value ([2]; Val/Val, DAY 15(DB)) was 4 and the “MADRS total score change” value [2, 13] was −18.50. For the same compound, the “MADRS total score, Mean” value [2, 13] was 16.11, the Non-responders % [2, 13] was 33.3% and the “Non-responders N” value [2, 13] was 6. The “Responders % (MADRS total score reduction ≥50%)” value [2, 13] was 66.7%, the “Responders N (MADRS total score reduction ≥50%)” value [2, 13] was 12 and the Non-remitters % ([2]; Val/Val, DAY 29(DB)) was 35.3%. For the same compound, the “Non-remitters No.” value ([2]; Val/Val, DAY 29(DB)) was 6, the “Remitters % (MADRS total score 10)” value ([2]; Val/Val, DAY 29(DB)) was 64.7% and the “Remitters No. (MADRS total score 10)” value ([2]; Val/Val, DAY 29(DB)) was 11. For the same compound, the “MADRS total score change” value [2, 14] was −26.59, the “MADRS total score, Mean” value [2, 14] was 9.59 and the Non-responders % [2, 14] was 17.6%. For the same compound, the “Non-responders N” value [2, 14] was 3, the “Responders % (MADRS total score reduction ≥50%)” value [2, 14] was 82.4% and the “Responders N (MADRS total score reduction ≥50%)” value [2, 14] was 14. For the same compound, the “Duration of response … Failure” value ([2]; Val/Val, Day 0 after Day 29) was 0, the “Duration of response, survival function estimate: Survival” value ([2]; Val/Val, Day 0 after Day 29) was 1.0000 and the “Duration of response … Failure” value ([2]; Val/Val, Day 4 after Day 29) was 0.1429. For the same compound, the “Duration of response, survival function estimate: Survival” value ([2]; Val/Val, Day 4 after Day 29) was 0.8571, the “Duration of response … Failure” value ([2]; Val/Val, Day 16 after Day 29) was 0.2208 and the “Duration of response, survival function estimate: Survival” value ([2]; Val/Val, Day 16 after Day 29) was 0.7792. For the same compound, the “Duration of response … Failure” value ([2]; Val/Val, Day 18 after Day 29) was 0.3321, the “Duration of response, survival function estimate: Survival” value ([2]; Val/Val, Day 18 after Day 29) was 0.6679 and the “Duration of response … Failure” value ([2]; Val/Val, Day 38 after Day 29) was 1.0000. The “Duration of response, survival function estimate: Survival” value ([2]; Val/Val, Day 38 after Day 29) was 0, the “Subjects who remain well, number” value ([2]; Val/Val, by Day 44, of 14) was 12 and the “Reduction in MADRS total score, Val/Val vs Met carriers” value ([2]; ketamine pooled 2x/wk and 3x/wk, over time) was “Larger reductions in MADRS total score over most time points were observed in Val/Val carriers as compared to those Met carriers”. The “Response rates, Val/Val vs Met carriers” value ([2]; Day 3 or Day 4 and Day 15) was “response rates were higher on Day 3 or Day 4 and Day 15 in Val/Val subjects than in Met carriers” and the “Response rates, Val/Val vs Met carriers” value ([2]; Days 8 and 29) was “response rates were similar on Days 8 and 29”.

In the case of `CN[C@]1(c2ccccc2Cl)CCCCC1=O.Cl` [Esketamine, (S)-2-(2-chlorophenyl)-2-(methylamino)cyclohexanone hydrochloride], the “Potency or affinity for the NMDA receptor” value [3] is given as “higher potency or affinity”.
